Results reported in patent US20260070917A1, “CYCLIN DEPENDENT KINASE DEGRADERS AND METHODS OF USE THEREOF” (Differentiated Therapeutics Inc, priority 2023, published 2026).

What was measured:
Format in all cases: cell-based
CDK2 = target: T1, CDK2 (Homo sapiens, UniProt P24941); experiment: HiBit Assay Protocol for CDK2 (HIBIT protein quantification, degradation); conditions: HEK293-CDK2-Hibit cells, compound treatment for 6 hours; for DC50: ABS DC50
T1 construct: host or cells: HEK293-CDK2-Hibit
Protocol: HiBit Assay Protocol for CDK2
• 1. The culture medium for HEK293-CDK2-Hibit cells was prepared using DMEM with 10% FBS. • 2. Cells were cultivated in T-75 flasks in a cell culture incubator set at 37° C., 5% CO2, 95% relative humidity. Cells were allowed to reach 80-90% confluence before detaching and splitting. • 3. Cultivated cells were rinsed in T-75 flasks with 5 mL PBS. Aspirate off Added was 1.5 mL trypsin, and the cells were incubated at 37° C. for approximately 5 minutes or until the cells detached and floated. • 4. Trypsin was inactivated by adding excess serum containing medium. • 5. Cells were harvested from flask into cell culture medium and then the cell number was counted. HEK293-CDK2-Hibit cells were seeded into 384-well plate (cell density: 1.6×10^5 cells/well/50 uL medium) in DMEM medium according to the plate map below and incubated overnight at 37° C. and 5% CO2. • Note: Cell Cultured Medium: 90% DMEM+10% FBS+1% Penicillin-Streptomycin Liquid
(§1) • 1. Test compounds were dissolved at 10 mM DMS stock solution. 45 uL of stock solution was transferred to a 384 pp-plate. A 3-fold, 10-point dilution was performed via transferring 15 uL compound into 30 uL DMSO by using TECAN liquid handler. • 2. The plates were spinned at room temperature at 1,000 RPM for 1 minute. • 3. 50 nL of diluted compound was transferred from compound source plate into the cell plate by Echo. • 4. After compound treatment for 6 hours, the plate was removed from incubators and equilibrated at room temperature for 15 minutes. The HiBit reagent was prepared, consisting of the following ratios: 10 mL of Nano-Glo®-HiBiT Lytic Buffer, 200 μL of Nano-Glo®-HiBiT Lytic Substrate and 100 uL of LgBiT Protein, mixed thoroughly. 20 μL of HiBit reagent was added into each well and the plates were spinned at room temperature at 1,000 RPM for 1 minute to be detected. Then the plates were shaken at 600 RPM at room temperature for 20 minutes, and read by EnVision. • 5. The inhibition activity was calculated following the formula below:
(§2) [formula] • Note: Where HC is obtained from cells treated with […] only; LC is obtained from culture medium only. • 6. ABS DC50 was calculated by fitting the Curve using Xlfit (v5.3.1.3), equation 201: […]

CCNE1 = target: T2, CCNE1 (Homo sapiens, UniProt P24864); experiment: HiBit Assay Protocol for CCNE1 (HIBIT protein quantification, degradation); conditions: HEK293-CCNE1-Hibit cells, compound treatment for 6 hours
T2 construct: host or cells: HEK293-CCNE1-Hibit
Protocol: HiBit Assay Protocol for CCNE1
• 1. The culture medium for HEK293-CCNE1-Hibit cell was prepared using EMEM with […]. • 2. Cells were cultivated in T-75 flasks in a cell culture incubator set at 37° C., 5% CO2, 95% relative humidity. Cells were allowed to reach 80-90% confluence before detaching and splitting. • 3. Cultivated cells were rinsed in T-75 flasks with 5 mL PBS. Aspirate off Added was 1.5 mL trypsin, and the cells were incubated at 37° C. for approximately 5 minutes or until the cells detached and floated. • 4. Trypsin was inactivated by adding excess serum containing medium. • 5. Cells were harvested from flask into cell culture medium and then the cell number was counted. HEK293-CCNE1-Hibit cell were seeded into 384-well plate (cell density: 1.6×10^5 cells/well/50 uL medium) in EMEM medium according to the plate map below and incubated overnight at 37° C. and […]. • Note: Cell Cultured Medium: 90% EMEM+10% FBS+1% Penicillin-Streptomycin Liquid
as §1, with “mM DMSO” for “mM DMS”, “45 μL” for “45 uL”, “100 μL” for “100 uL”, “Protein, mix” for “Protein, mixed”
as §2

CDK9 = target: T3, CDK9 (Homo sapiens, UniProt P50750); experiment: HiBit Assay Protocol for CDK9 (HIBIT protein quantification, degradation); conditions: HEK293-CDK9-Hibit cells, compound treatment for 6 hours; for Dmax: 6 h, read-out: CDK9 HIBIT Protein Quantification Maximum; for DC50: ABS DC50
T3 construct: host or cells: HEK293-CDK9-Hibit
Protocol: HiBit Assay Protocol for CDK9
• 1. The culture medium for HEK293-CDK9-Hibit cell was prepared using DMEM with 10% FBS. • 2. Cells were cultivated in T-75 flasks in a cell culture incubator set at 37° C., 5% CO2, 95% relative humidity. Cells were allowed to reach 80-90% confluence before detaching and splitting. • 3. Cultivated cells were rinsed in T-75 flasks with 5 mL PBS. Aspirated off. Added 1.5 mL trypsin, and incubated the cells at 37° C. for approximately 5 minutes or until the cells detached and floated. • 4. Trypsin was inactivated by adding excess serum containing medium. • 5. Cells were harvested from flask into cell culture medium and then the cell number was counted. HEK293-CDK9-Hibit cells were seeded into 384-well plate (cell density: 1.6×10^5 cells/well/50 uL medium) in DMEM medium according to the plate map below and were incubated overnight at 37° C. and 5% CO2. • Note: Cell Cultured Medium: 90% DMEM+10% FBS+1% Penicillin-Streptomycin Liquid
• 1. Test compounds were dissolved at 3 mM DMSO stock solution. Transferred 45 uL of stock solution to a 384 pp-plate. Perform 3-fold, 10-point dilution via transferring 15 uL compound into 30 uL DMSO by using TECAN liquid handler. • 2. The plates were spinned at room temperature at 1,000 RPM for 1 minute. • 3. Transferred 50 nL of diluted compound from compound source plate into the cell plate by Echo. • 4. After compound treatment for 6 hours, removed the plate from incubators and equilibrated at room temperature for 15 minutes. Prepared the HiBit reagent consists of the following ratios: 10 mL of Nano-Glo®-HiBiT Lytic Buffer, 200 uL of Nano-Glo®-HiBiT Lytic Substrate and 100 uL of LgBiT Protein, mixed thoroughly. Added 20 uL of HiBit reagent into each well and spinned the plates at room temperature at 1,000 RPM for 1 minute to be detected. Plates were then shaken at 600 RPM at room temperature for 20 minutes, and read by EnVision. • 5. The inhibition activity was calculated following the formula below:
[formula] • Note: Where HC was obtained from cells treated with 0.1% DMSO only; LC was obtained from culture medium only. • 6. The ABS DC50 was calculated by fitting the Curve using Xlfit (v5.3.1.3), equation 201: […]

T3 sequence (P50750 whole entry): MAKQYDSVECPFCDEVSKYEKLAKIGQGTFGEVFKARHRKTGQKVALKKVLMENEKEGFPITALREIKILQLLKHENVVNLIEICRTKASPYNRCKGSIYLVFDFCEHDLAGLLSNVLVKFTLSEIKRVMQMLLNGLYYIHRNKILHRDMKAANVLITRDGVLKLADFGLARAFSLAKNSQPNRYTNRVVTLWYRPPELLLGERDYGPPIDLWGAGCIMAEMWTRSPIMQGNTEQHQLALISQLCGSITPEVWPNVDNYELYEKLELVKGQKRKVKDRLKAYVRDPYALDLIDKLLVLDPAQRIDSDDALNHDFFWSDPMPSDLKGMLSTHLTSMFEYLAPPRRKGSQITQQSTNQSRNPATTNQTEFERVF
T2 sequence (P24864 whole entry): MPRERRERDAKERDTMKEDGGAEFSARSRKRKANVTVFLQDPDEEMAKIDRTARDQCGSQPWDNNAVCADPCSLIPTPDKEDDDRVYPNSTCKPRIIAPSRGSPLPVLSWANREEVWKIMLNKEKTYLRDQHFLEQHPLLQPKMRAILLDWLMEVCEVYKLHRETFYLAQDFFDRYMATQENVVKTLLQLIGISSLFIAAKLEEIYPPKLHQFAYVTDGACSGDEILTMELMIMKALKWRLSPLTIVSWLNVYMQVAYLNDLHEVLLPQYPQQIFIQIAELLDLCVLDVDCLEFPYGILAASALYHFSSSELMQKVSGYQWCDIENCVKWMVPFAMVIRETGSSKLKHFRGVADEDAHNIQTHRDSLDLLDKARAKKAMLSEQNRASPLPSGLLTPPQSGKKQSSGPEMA

Compound: CC1CCCC1N1C(=O)C2(CC2)c2cnc(NC3CCN(S(=O)(=O)N4CCC5(CCCN5C(=O)CCCCc5cccc6c5n(C)c(=O)n6C5CCC(=O)NC5=O)C4)CC3)nc21 (centres unmarked) [Compound 94]
- CDK2 HIBIT Protein Quantification Maximum (CDK2): 63%
- DC50 (CDK2): 16 nM
- CCNE1 HIBIT Protein Quantification Maximum (CCNE1): 39%
- Dmax (CDK9): 51%
- DC50 (CDK9): 2 nM

Compound: CC1CCCC1N1C(=O)C2(CC2)c2cnc(NC3CCN(S(=O)(=O)N4CC5CN(C(=O)CCc6ccc7c(c6)n(C)c(=O)n7C6CCC(=O)NC6=O)CC5C4)CC3)nc21 (centres unmarked) [Compound 55]
- CDK2 HIBIT Protein Quantification Maximum (CDK2): 25%
- CCNE1 HIBIT Protein Quantification Maximum (CCNE1): 13%
- Dmax (CDK9): 8%

Compound: CC1CCCC1N1C(=O)C2(CC2)c2cnc(NC3CCN(S(=O)(=O)N4CC5(CCN(C(=O)CCc6cccc7c6n(C)c(=O)n7C6CCC(=O)NC6=O)CC5)C4)CC3)nc21 (centres unmarked) [Compound 20]
- CDK2 HIBIT Protein Quantification Maximum (CDK2): 46%
- CCNE1 HIBIT Protein Quantification Maximum (CCNE1): 29%
- Dmax (CDK9): 71%
- DC50 (CDK9): 86.3 nM

Compound: CC1CCCC1N1C(=O)C2(CC2)c2cnc(NC3CCN(S(=O)(=O)N4CC5C4CCN5C(=O)CCCc4cccc5c4n(C)c(=O)n5C4CCC(=O)NC4=O)CC3)nc21 (centres unmarked) [Compound 31]
- CDK2 HIBIT Protein Quantification Maximum (CDK2): 62%
- DC50 (CDK2): 17 nM
- CCNE1 HIBIT Protein Quantification Maximum (CCNE1): 14%
- Dmax (CDK9): 15%

Compound: CC1CCCC1N1C(=O)C2(CC2)c2cnc(NC3CCN(S(=O)(=O)N4CCCN(C(=O)CCCCc5cccc6c5n(C)c(=O)n6C5CCC(=O)NC5=O)CC4)CC3)nc21 (centres unmarked) [Compound 100]
- CDK2 HIBIT Protein Quantification Maximum (CDK2): 62%
- DC50 (CDK2): 6 nM
- CCNE1 HIBIT Protein Quantification Maximum (CCNE1): 31%
- Dmax (CDK9): 34%

Compound: Cn1c(=O)n(C2CCC(=O)NC2=O)c2cccc(N3CCN(Cc4cccc(S(=O)(=O)N5CCC(Nc6ncc7c(n6)N([C@@H]6CCC[C@@H](O)C6)C(=O)C76CC6)CC5)c4)CC3)c21 (stereo partly drawn) [Compound 181, 3-[4-(4-{[3-(4-{7′-[(1R,3R)-3-hydroxycyclohexyl]-6′-oxospiro[cyclopropane-1,5′-pyrrolo[2,3-d]pyrimidin]-2′-ylamino}piperidin-1-ylsulfonyl)phenyl]methyl}piperazin-1-yl)-3-methyl-2-oxo-1,3-benzodiazol-1-yl]piperidine-2,6-dione]
- CDK2 HIBIT Protein Quantification Maximum (CDK2): 77%
- DC50 (CDK2): 6.02 nM
- CCNE1 HIBIT Protein Quantification Maximum (CCNE1): 38%
- Dmax (CDK9): 11%

Compound: CC1CCCC1N1C(=O)C2(CC2)c2cnc(NC3CCN(S(=O)(=O)N4CC5(CCCN(C(=O)CCCCc6ccc7c(c6)n(C)c(=O)n7C6CCC(=O)NC6=O)C5)C4)CC3)nc21 (centres unmarked) [Compound 107]
- CDK2 HIBIT Protein Quantification Maximum (CDK2): 28%
- CCNE1 HIBIT Protein Quantification Maximum (CCNE1): 25%
- Dmax (CDK9): 22%

Compound: CC1CCCC1N1C(=O)C2(CC2)c2cnc(NC3CCN(S(=O)(=O)C4CCCN(C(=O)CCCCc5ccc6c(c5)n(C)c(=O)n6C5CCC(=O)NC5=O)C4)CC3)nc21 (centres unmarked) [Compound 115]
- CDK2 HIBIT Protein Quantification Maximum (CDK2): 23%
- Dmax (CDK9): 7%

Compound: CC1CCCC1N1C(=O)C2(CC2)c2cnc(NC3CCN(S(=O)(=O)N4CC5C4CCN5C(=O)CCCCc4cccc5c4n(C)c(=O)n5C4CCC(=O)NC4=O)CC3)nc21 (centres unmarked) [Compound 98]
- CDK2 HIBIT Protein Quantification Maximum (CDK2): 31%
- Dmax (CDK9): 15%

Compound: C[C@H](c1cc(S(=O)(=O)N2CC[C@H](Nc3ncc4c(n3)N([C@@H]3CCC[C@@H](O)C3)C(=O)C43CC3)[C@H](F)C2)ccc1F)N1CCN(c2ccc3c(N4CCC(=O)NC4=O)nn(C)c3c2)CC1 [Compound 210]
- CDK2 HIBIT Protein Quantification Maximum (CDK2): 91%
- DC50 (CDK2): 4.7 nM
- CCNE1 HIBIT Protein Quantification Maximum (CCNE1): 47%

Compound: CC1CCCC1N1C(=O)C2(CC2)c2cnc(NC3CCN(S(=O)(=O)N4CC5(CCN(C(=O)Cc6ccc7c(c6)n(C)c(=O)n7C6CCC(=O)NC6=O)CC5)C4)CC3)nc21 (centres unmarked) [Compound 54]
- CDK2 HIBIT Protein Quantification Maximum (CDK2): 14%
- Dmax (CDK9): 4%

Compound: CC1CCCC1N1C(=O)C2(CC2)c2cnc(NC3CCN(S(=O)(=O)N4CCN(C(=O)CCCCc5ccc6c(c5)n(C)c(=O)n6C5CCC(=O)NC5=O)CC4)CC3)nc21 (centres unmarked) [Compound 12]
- CDK2 HIBIT Protein Quantification Maximum (CDK2): 34.6%
- CCNE1 HIBIT Protein Quantification Maximum (CCNE1): 16.9%

Compound: C[C@H]1CN(c2ccc3c(N4CCC(=O)NC4=O)nn(C)c3c2)CCN1[C@@H](C)c1cccc(S(=O)(=O)N2CC[C@H](Nc3ncc4c(n3)N([C@@H]3CCC[C@@H](O)C3)C(=O)C43CC3)[C@H](F)C2)c1 [Compound 194]
- CDK2 HIBIT Protein Quantification Maximum (CDK2): 94%
- DC50 (CDK2): 3.86 nM
- CCNE1 HIBIT Protein Quantification Maximum (CCNE1): 42%
